Columns and labels:
[1] = biological target: FLT3-ITD (Homo sapiens (Human), UniProt P36888, INS600HVDFREYEYD); experiment: pFLT3 MSD assay, Ba/F3 FLT3-ITD; assay type: cell-based; settings: Ba/F3 FLT3-ITD cells, 2 hours, read-out: BaF3-FLT3-ITD pFlt3 IC50
[2] = biological target: KIT kinase (Homo sapiens (Human), UniProt P10721); experiment: Competition binding assay (Kd), KIT; settings: competition binding assay
Summary of the method: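 Kd derived from eleven-point threefold serial dilutions of compound competing with bead-bound ligand for kinase; bound kinase eluted and measured by quantitative PCR. Kinase supplied either as a T7 phage fusion or expressed in HEK-293 cells with a DNA tag; DMSO served as control.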

[3] = biological target: FLT3 kinase (Homo sapiens (Human), UniProt P36888); experiment: Competition binding assay (Kd), FLT3; settings: competition binding assay
FLT3 kinase, sequence (P36888 27-993): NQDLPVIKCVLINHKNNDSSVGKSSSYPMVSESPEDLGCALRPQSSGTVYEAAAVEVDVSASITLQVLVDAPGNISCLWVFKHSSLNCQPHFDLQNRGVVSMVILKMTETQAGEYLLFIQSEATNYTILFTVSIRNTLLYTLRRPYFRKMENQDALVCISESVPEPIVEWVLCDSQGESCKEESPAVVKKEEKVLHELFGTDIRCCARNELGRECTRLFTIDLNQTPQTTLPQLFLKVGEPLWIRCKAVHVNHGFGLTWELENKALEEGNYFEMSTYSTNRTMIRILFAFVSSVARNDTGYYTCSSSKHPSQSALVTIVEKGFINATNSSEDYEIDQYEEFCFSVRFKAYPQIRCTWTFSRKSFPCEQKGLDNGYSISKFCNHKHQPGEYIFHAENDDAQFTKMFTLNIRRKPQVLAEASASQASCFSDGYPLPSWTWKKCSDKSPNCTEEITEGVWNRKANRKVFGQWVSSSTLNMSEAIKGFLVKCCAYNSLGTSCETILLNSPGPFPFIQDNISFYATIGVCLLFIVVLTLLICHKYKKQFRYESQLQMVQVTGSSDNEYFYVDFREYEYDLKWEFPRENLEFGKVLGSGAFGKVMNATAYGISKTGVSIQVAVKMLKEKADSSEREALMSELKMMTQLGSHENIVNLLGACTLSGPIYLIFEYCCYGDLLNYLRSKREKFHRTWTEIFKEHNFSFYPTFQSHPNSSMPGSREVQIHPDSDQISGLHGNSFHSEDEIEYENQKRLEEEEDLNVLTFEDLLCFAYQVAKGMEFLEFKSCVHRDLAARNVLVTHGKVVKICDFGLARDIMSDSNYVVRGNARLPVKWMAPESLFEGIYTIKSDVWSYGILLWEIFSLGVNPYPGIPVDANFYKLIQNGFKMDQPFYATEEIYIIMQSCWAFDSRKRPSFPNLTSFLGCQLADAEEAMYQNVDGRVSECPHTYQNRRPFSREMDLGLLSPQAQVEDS

KIT kinase, sequence (P10721 26-976): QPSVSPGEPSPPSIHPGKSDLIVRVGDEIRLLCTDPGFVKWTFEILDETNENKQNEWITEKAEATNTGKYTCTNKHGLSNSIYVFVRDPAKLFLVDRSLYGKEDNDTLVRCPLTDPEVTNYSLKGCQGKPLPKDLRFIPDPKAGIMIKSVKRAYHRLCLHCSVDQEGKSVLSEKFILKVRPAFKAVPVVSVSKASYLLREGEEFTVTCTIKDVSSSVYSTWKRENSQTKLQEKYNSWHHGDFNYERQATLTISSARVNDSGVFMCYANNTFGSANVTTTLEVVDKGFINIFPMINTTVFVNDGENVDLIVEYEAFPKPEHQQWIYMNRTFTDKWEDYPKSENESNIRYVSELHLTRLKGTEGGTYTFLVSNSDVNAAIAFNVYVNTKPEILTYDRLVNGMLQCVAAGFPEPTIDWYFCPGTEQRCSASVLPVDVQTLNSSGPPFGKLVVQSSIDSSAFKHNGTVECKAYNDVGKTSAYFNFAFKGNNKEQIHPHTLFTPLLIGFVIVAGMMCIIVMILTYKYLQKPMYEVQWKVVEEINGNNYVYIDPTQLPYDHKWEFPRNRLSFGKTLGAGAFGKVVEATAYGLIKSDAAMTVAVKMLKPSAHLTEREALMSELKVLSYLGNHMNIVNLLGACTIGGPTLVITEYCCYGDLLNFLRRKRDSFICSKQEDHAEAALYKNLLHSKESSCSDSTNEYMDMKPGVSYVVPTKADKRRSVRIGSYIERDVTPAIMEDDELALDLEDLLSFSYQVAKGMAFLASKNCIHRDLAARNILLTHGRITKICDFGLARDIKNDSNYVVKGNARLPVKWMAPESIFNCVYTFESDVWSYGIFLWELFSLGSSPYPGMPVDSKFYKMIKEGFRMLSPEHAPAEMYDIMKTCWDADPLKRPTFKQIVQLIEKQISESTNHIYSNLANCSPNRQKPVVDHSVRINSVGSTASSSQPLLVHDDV
FLT3-ITD, sequence (P36888 other isoform, or with tags, fused parts or gaps limits assumed, stated change not applied): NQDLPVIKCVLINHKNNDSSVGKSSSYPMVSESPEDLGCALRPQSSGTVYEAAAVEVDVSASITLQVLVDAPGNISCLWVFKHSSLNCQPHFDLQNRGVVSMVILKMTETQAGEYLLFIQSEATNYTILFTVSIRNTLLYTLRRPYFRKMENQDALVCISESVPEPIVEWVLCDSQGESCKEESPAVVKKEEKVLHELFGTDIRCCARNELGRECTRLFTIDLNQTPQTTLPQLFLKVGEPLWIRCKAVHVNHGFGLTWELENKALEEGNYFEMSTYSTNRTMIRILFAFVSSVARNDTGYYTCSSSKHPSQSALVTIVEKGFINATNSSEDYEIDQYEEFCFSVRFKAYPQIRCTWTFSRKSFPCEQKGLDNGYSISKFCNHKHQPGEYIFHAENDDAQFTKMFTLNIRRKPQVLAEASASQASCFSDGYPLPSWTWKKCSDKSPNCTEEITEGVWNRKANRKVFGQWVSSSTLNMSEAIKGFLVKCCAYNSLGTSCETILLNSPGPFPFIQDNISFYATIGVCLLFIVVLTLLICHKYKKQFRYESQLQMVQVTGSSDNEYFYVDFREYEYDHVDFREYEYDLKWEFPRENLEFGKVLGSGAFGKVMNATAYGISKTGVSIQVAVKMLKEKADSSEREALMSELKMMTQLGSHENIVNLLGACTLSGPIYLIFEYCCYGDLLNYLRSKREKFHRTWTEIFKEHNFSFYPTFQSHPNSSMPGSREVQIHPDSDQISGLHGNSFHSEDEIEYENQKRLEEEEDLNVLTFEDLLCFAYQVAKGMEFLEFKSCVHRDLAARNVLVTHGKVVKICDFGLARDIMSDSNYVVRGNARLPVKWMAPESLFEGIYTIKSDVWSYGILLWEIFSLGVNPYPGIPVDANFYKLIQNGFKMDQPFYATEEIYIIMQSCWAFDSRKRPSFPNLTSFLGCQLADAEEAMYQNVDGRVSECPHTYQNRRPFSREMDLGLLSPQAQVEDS

Structure (SMILES)	IC50 [1] [nM]	Kd [2] [nM]	Kd [3] [nM]
COc1cc2ncc(-c3ccc(CC(=O)Nc4cc(C5(C(F)(F)F)CC5)on4)c(F)c3)nc2cc1OCc1ccccc1 [Example 156, 2-[4-(7-benzyloxy-6-methoxy-quinoxalin-2-yl)-2-fluoro-phenyl]-N-[5-[1-(trifluoromethyl)cyclo-propyl]isoxazol-3-yl]acetamide]	< 10	> 50	> 50
COc1cc2ncc(-c3ccc(CC(=O)Nc4cc(C5(C(F)(F)F)CC5)on4)c(F)c3)nc2cc1O [Example 157, 2-[2-fluoro-4-(7-hydroxy-6-methoxy-quinoxalin-2-yl)phenyl]-N-[5-[1-(trifluoro-methyl)cyclopropyl]isoxazol-3-yl]acetamide]	< 10	< 5	< 5
COc1cc2ncc(-c3ccc(CC(=O)Nc4cc(C5(C(F)(F)F)CC5)on4)c(F)c3)nc2cc1OCCN(C)C [Example 158, 2-[4-[7-[2-(dimethylamino)ethoxy]-6-methoxy-quinoxalin-2-yl]-2-fluoro-phenyl]-N-[5-[1-(trifluoromethyl)cyclo-propyl]isoxazol-3-yl]acetamide]	< 10	< 5	< 5
COCCOc1cc2ncc(-c3ccc(CC(=O)Nc4cc(C(C)(C)C(F)(F)F)on4)c(F)c3)nc2cc1OC [Example 159, 2-[2-fluoro-4-[7-methoxy-6-(2-methoxy-ethoxy)quinoxalin-2-yl]phenyl]-N-[5-(2,2,2-trifluoro-1,1-dimethyl-ethyl)isoxazol-3-yl]acetamide]	< 10	< 5	< 5
COCCOc1cc2nc(-c3ccc(CC(=O)Nc4cc(C(C)(C)C(F)(F)F)on4)c(F)c3)cnc2cc1OC [Example 160, 2-[2-fluoro-4-[6-methoxy-7-(2-methoxy-ethoxy)quinoxalin-2-yl]phenyl]-N-[5-(2,2,2-trifluoro-1,1-dimethyl-ethyl)isoxazol-3-yl]acetamide]	< 10	< 5	< 5
COCCOc1cc2nc(-c3ccc(CC(=O)Nc4cc(C(C)(C)C)nn4C)c(F)c3)cnc2cc1OC [Example 161, N-(5-tert-butyl-2-methyl-pyrazol-3-yl)-2-[2-fluoro-4-[6-methoxy-7-(2-methoxyethoxy)quinoxalin-2-yl]phenyl]acetamide]	< 10	< 5	< 5
COCCOc1cc2ncc(-c3ccc(CC(=O)Nc4cc(C(C)(C)C)nn4C)c(F)c3)nc2cc1OC [Example 162, N-(5-tert-butyl-2-methyl-pyrazol-3-yl)-2-[2-fluoro-4-[7-methoxy-6-(2-methoxyethoxy)quinoxalin-2-yl]phenyl]acetamide]	< 10	< 5	< 5
COc1cc2nc(-c3ccc(CC(=O)Nc4cc(C5(C(F)(F)F)CC5)on4)c(F)c3)cnc2cc1OCc1ccccc1 [Example 163, 2-[4-(6-benzyloxy-7-methoxy-quinoxalin-2-yl)-2-fluoro-phenyl]-N-[5-[1-(trifluoromethyl)cyclo-propyl]isoxazol-3-yl]acetamide]	< 10	> 50	> 50
COc1cc2nc(-c3ccc(CC(=O)Nc4cc(C(C)(C)C(F)(F)F)on4)c(F)c3)cnc2cc1O [Example 164, 2-[2-fluoro-4-(6-hydroxy-7-methoxy-quinoxalin-2-yl)phenyl]-N-[5-(2,2,2-trifluoro-1,1-dimethyl-ethyl)isoxazol-3-yl]acetamide]	< 10	5 to 20	< 5
COc1cc2nc(-c3ccc(CC(=O)Nc4cc(C(C)(C)C(F)(F)F)on4)c(F)c3)cnc2cc1OCCO [Example 165, 2-[2-fluoro-4-[6-(2-hydroxyethoxy)-7-methoxy-quinoxalin-2-yl]phenyl]-N-[5-(2,2,2-trifluoro-1,1-dimethyl-ethyl)isoxazol-3-yl]acetamide]	< 10	< 5	< 5
COc1cc2nc(-c3ccc(CC(=O)Nc4cc(C5(C(F)(F)F)CC5)on4)c(F)c3)cnc2cc1OCCN=[N+]=[N-] [Example 166, 2-[4-[6-(2-azidoethoxy)-7-methoxy-quinoxalin-2-yl]-2-fluoro-phenyl]-N-[5-[1-(trifluoromethyl)cyclo-propyl]isoxazol-3-yl]acetamide]	< 10	< 5	< 5
COc1cc2nc(-c3ccc(CC(=O)Nc4cc(C5(C(F)(F)F)CC5)on4)c(F)c3)cnc2cc1OCCN [Example 167, 2-[4-[6-(2-aminoethoxy)-7-methoxy-quinoxalin-2-yl]-2-fluoro-phenyl]-N-[5-[1-(trifluoromethyl)cyclo-propyl]isoxazol-3-yl]acetamide]	< 10	< 5	< 5
COc1cc2nc(-c3ccc(CC(=O)Nc4cc(C5(C(F)(F)F)CC5)on4)c(F)c3)cnc2cc1OCCNC(C)=O [Example 168, 2-[4-[6-(2-acetamidoethoxy)-7-methoxy-quinoxalin-2-yl]-2-fluoro-phenyl]-N-[5-[1-(trifluoromethyl)cyclo-propyl]isoxazol-3-yl]acetamide]	< 10	< 5	< 5
COc1cc2nc(C)c(-c3ccc(CC(=O)Nc4cc(C5(C(F)(F)F)CC5)on4)c(F)c3)nc2cc1OC [Example 169, 2-[4-(6,7-dimethoxy-3-methyl-quinoxalin-2-yl)-2-fluoro-phenyl]-N-[5-[1-(trifluoromethyl)cyclo-propyl]isoxazol-3-yl]acetamide]	< 10	< 5	< 5
COc1cc2ncc(-c3ccc(CC(=O)Nc4cc(C(C)(C)C(F)(F)F)on4)c(F)c3)nc2cc1OCCO [Example 170, 2-[2-fluoro-4-[7-(2-hydroxyethoxy)-6-methoxy-quinoxalin-2-yl]phenyl]-N-[5-(2,2,2-trifluoro-1,1-dimethyl-ethyl)isoxazol-3-yl]acetamide]	< 10	< 5	< 5
COCCOc1cc2nc(-c3ccc(CC(=O)Nc4cc(C5(C(F)(F)F)CC5)on4)c(F)c3)cnc2cc1OC [compound 77]	< 10	< 5	< 5
